From US11390609B2, “Rho-associated protein kinase inhibitor, pharmaceutical composition comprising same, and preparation method and use thereof” (BEIJING TIDE PHARMACEUTICAL CO., LTD., priority 2017, dated 2022)

Legend:
ROCK2 = ROCK2 (Homo sapiens, UniProt O75116); test: ROCK2 kinase IC50 assay (CISBIO HTRF KinEASE-STK S2 kit); assay type: biochemical; settings: incubated at room temperature for 2 hours
Summary of the method: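 HTRF KinEASE-STK S2 format with recombinant ROCK2 (1.4 ng per well), STK-S2 substrate and ATP from 5× working solutions of 1.5 μM each, run 2 h at room temperature. Nine-point dilutions from 10000 nM top concentration; 665/615 nm emission ratio normalised to no-compound and no-kinase controls, curve-fitted for IC50.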

ROCK1 = ROCK1 (Homo sapiens (Human), UniProt Q13464); test: ROCK1 kinase IC50 assay (biological test method similar to the ROCK2 assay); assay type: biochemical
ROCK1, sequence (Q13464 whole entry, species assumed): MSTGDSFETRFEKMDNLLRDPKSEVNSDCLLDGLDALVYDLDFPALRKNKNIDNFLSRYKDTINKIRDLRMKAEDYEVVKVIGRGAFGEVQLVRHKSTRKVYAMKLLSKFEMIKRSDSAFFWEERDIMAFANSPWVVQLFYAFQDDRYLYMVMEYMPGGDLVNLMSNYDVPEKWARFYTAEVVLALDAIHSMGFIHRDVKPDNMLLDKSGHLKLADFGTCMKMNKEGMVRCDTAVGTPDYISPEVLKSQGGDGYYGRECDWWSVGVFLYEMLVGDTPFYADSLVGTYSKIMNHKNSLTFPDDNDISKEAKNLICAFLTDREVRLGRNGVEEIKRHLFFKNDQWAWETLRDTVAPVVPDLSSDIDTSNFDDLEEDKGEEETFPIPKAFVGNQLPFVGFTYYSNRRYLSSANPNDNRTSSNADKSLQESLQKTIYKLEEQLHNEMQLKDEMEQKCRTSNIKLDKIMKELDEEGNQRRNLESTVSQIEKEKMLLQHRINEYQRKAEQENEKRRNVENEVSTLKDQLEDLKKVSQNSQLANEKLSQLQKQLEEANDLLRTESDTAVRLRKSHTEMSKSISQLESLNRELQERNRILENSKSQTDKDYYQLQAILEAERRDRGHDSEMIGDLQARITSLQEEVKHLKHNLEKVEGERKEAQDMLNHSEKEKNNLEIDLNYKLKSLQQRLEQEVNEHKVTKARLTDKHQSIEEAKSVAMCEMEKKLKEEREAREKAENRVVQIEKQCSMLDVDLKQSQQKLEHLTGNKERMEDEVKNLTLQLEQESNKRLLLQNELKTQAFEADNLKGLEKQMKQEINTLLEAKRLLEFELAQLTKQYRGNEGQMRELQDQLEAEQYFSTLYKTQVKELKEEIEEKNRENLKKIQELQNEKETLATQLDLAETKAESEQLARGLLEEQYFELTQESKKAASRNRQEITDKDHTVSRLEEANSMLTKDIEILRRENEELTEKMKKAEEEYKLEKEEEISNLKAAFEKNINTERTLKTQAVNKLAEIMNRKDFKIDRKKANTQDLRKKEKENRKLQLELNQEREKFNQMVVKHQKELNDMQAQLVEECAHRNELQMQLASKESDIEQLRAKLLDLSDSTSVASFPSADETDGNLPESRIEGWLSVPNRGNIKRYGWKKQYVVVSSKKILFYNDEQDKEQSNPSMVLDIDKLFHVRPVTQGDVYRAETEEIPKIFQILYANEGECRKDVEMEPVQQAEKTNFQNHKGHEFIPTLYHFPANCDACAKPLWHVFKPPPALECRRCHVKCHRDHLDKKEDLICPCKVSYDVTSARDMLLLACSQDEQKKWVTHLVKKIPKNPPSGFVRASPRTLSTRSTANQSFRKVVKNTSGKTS
Summary of the method: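 Compound dilution series (9 concentrations, top solution 10000 nM, DMSO-containing buffer) incubated 2 h at room temperature with kinase, STK-S2 substrate and ATP (5× working solutions of 1.5 µM each). Phosphorylation detected by HTRF (665/615 nm emission ratio) after 1 h; inhibition relative to full-reaction and kinase-free wells, fitted for IC50.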

Row | IC50 (ROCK2) [µM] | IC50 (ROCK1) [µM] | Compound
1 | 0.198 | 4.93 | Cn1c(C(=O)N2CC(C(F)(F)F)C2)cc2ccc(-c3nccc(Nc4ccc(-c5cn[nH]c5)cc4)n3)cc21 [TDI01538, (6-(4-((4-(1H-pyrazol-4-yl)phenyl)amino)pyrimidin-2-yl)-1-methyl-1H-indol-2-yl)(3-(trifluoromethyl)azetidin-1-yl)methanone]
2 | 0.027 | > 10 | O=C(NC1CC(F)(F)C1)N1Cc2ccc(-c3nccc(Nc4ccc(-c5cn[nH]c5)cc4)n3)cc2C1 [TDI01951, 5-(4-((4-(1H-pyrazol-4-yl)phenyl)amino)pyrimidin-2-yl)-N-(3,3-difluorocyclobutyl) isoindoline-2-carboxamide]
3 | 0.083 | > 10 | O=C(C1CCOCC1)N1Cc2ccc(-c3nccc(Nc4ccc(-c5cn[nH]c5)cc4)n3)cc2C1 [TDI01560, (5-(4-((4-(1H-pyrazol-4-yl)phenyl)amino)pyrimidin-2-yl)isoindolin-2-yl)(tetrahydro-2H-pyran-4-yl)methanone]

Second part, the molecule before the results:

Row | Compound | IC50 (ROCK2) [µM] | IC50 (ROCK1) [µM]
4 | O=C(c1cc2ccc(-c3nc(Nc4ccc5[nH]ncc5c4)c4sccc4n3)cc2[nH]1)N1CCC2(CCNCC2)CC1 [TDI01404, (6-(4-((1H-indazol-5-yl)amino)-thieno[3,2-d]pyrimidin-2-yl)-1H-indol-2-yl)(3,9-diazaspiro[5.5]undecan-3-yl)methanone] | 0.035 | 1.52
5 | O=C(NC1CC(F)C1)c1cc2ccc(-c3nc(Nc4ccc(-c5cn[nH]c5)cc4)c4sccc4n3)cc2[nH]1 (centres unmarked) [TDI01487, 6-(4-((4-(1H-pyrazol-4-yl)phenyl)amino)thieno [3,2-d]pyrimidin-2-yl)-N-(3-fluorocyclobutyl)-1H-indole-2-carboxamide] | 0.193 | 5.04
6 | O=C(c1cc2ccc(-c3nccc(Nc4ccc(-c5cn[nH]c5)cc4)n3)cc2[nH]1)N1CCS(=O)(=O)CC1 [TDI01497, (6-(4-((4-(1H-pyrazol-4-yl)phenyl)amino)pyrimidin-2-yl)-1H-indol-2-yl)(1,1-dioxidothiomorpholino) methanone] | 0.319 | > 10
7 | Cn1c(C(=O)N2CC(F)(F)C2)cc2ccc(-c3nc(Nc4ccc(-c5cn[nH]c5)cc4)c4sccc4n3)cc21 [TDI01508, (6-(4-((4-(1H-pyrazol-4-yl)phenyl)amino)thieno[3,2-d]pyrimidin-2-yl)-1-methyl-1H-indol-2-yl)(3,3-difluoroazetidin-1-yl)methanone] | 0.159 | > 10
